In US20050036993A1, “Immune activation by double-stranded polynucleotides” (priority 1998, published 2005):

Experiments:
[1] = tested on: MHC Class I, TAP-1, LMP2, MHC Class II, invariant chain, HLA-DM, 90K tumor-associated immunostimulator; experiment: Drug suppression of ds polynucleotide-induced MHC and antigen-presenting gene expression in FRTL-5 cells (Northern); format: cell-based, rat; conditions: for ability of dsDNA to increase MHC Class I, TAP-1, LMP2, MHC Class II, invariant chain, HLA-DM, and 90K gene expression / ability of dsRNA to increase MHC Class I, TAP-1, LMP2, MHC Class II, invariant chain, HLA-DM, and 90K gene expression: FRTL-5 cells with TSH (6H5) or without TSH (5H5), 48 hours pretreatment, compound 10 0.5 mM, MMI 5 mM; for ability of dsDNA to increase MHC Class I, TAP-1, LMP2, MHC Class II, invariant chain, HLA-DM, and 90K gene expression: 2-mercaptoimidazole 5 mM, 5 ug dsDNA; for dsDNA or dsRNA transfection efficiency: FRTL-5 cells, drug-treated; for ability of dsRNA to increase MHC Class I, TAP-1, LMP2, MHC Class II, invariant chain, HLA-DM, and 90K gene expression: 5 ug dsRNA
[2] = tested on: MHC Class I and Class II gene expression; conditions: cited from earlier work
herpes simplex = conditions: cited from earlier work
vaccinia viruses = conditions: cited from earlier work
FRTL-5 rat thyroid cells = experiment: DNA staining and cell cycle analysis (FACS) of FRTL-5 cells; format: cell-based; conditions: for cell cycle arrest: 5H medium 6 days then 6H medium (TSH 1×10^−10M), 5 mM methimazole or 0.5 mM compound 10; for percentage of cells in S + G2/M phase: Methimazole 5 mM, Compound 10 0.5 mM; for action of the ds nucleic acids on cell cycle progression: Table 2 experiment, 4H medium; for effect of ds nucleic acids on growth: summary statement
Procedure: Cells were diploid and between their 5th and 25th passage. Fresh medium was added every 2 or 3 days and cells were passaged every 7-10 days. In some experiments, as noted, cells were grown to near confluency in 6H medium then maintained in 5H medium (which contains no TSH) or 4H medium (with no TSH and no insulin) for 6-8 days before experiments were initiated. Treatment with 5H or 4H medium synchronizes the cells by piling them up in G0/G1 (A. Hirai, et al., J. Biol. Chem. 272: 13-16 (1997); Y. Noguchi, et al., J. Biol. Chem. 273: 3649-3653 (1998)).
DNA Staining and Cell Cycle Analysis—The procedure used was a modification of that described (P. Smerdely, et al., Endocrinology 133: 2403-2406 (1993)). It used the Cycle TEST PLUS DNA Reagent Kit (Becton Dickinson, San Jose, Calif.); and FACS analysis was performed according to the manufacturer's instructions. Briefly, 5×10^5 cells were incubated with 250 T1 of Solution A (trypsin buffer) for 10 min at room temperature, then 200 T1 of Solution B (trypsin inhibitor and ribonuclease A buffer) was added and further incubated for 10 min. Cold Solution C (propidium iodide stain solution) was added and incubated for 10 min at 4° C. in the dark. FACS analysis was performed using FACScan (Becton Dickinson, San Jose, Calif.). Each analysis was performed in triplicate on cells from 3 different plates; the histogram had at least 10,000 events and a coefficient of variation less than 5%.
In the experiment above, there was a minimal direct methimazole effect on the cell cycle because the cells were maintained in 4H medium without insulin; methimazole action requires insulin (O. Isozaki, et al., Mol. Endocrinol, 3: 1681-1692 (1989); O. Isozaki, et al., Endocrinology 128: 3113-3121 (1991)). […] In this experiment, FRTL-5 cells were grown to near confluency in 6H medium, then shifted to 5H medium without TSH for 6 days. The experiments were initiated by returning the cells to 6H medium to reinitiate the cell cycle. Cells were treated with 5 mM methimazole and transfected or not with dsDNA or dsRNA. After 36 hours they were subjected to cell cycle analysis. […] In this experiment, FRTL-5 cells were grown to near confluency in 6H medium, then shifted to 5H medium without TSH for 6 days. The experiments were initiated by returning the cells to 6H medium to reinitiate the cell cycle. Cells were treated with 0.5 mM 5-phenylmethimazole (compound 10) and transfected or not with dsDNA or dsRNA. After 36 hours they were subjected to cell cycle analysis.

HUVEC cells = experiment: Drug suppression of ds DNA or RNA effect in endothelia (HUVEC) cells; format: cell-based, human
Text: (§1) In this experiment (FIG. 6), cells were pretreated with MMI and compound 10 for 2 days before tranfection. […] The effect was therefore not thyroid cell restricted.

mouse dendritic cells = experiment: Drug suppression of ds DNA or RNA effect in mouse dendritic cells; format: cell-based
Text: as §1

human fibroblasts = experiment: Drug suppression of ds DNA or RNA effect in human fibroblasts; format: cell-based
Text: as §1

female NOD mice = conditions: cited from earlier work
female (NZBxNZW)F1 mice = conditions: cited from earlier work
[3] = Control (no ds nucleic acid), FRTL-5 cells 6 days in 4 H medium without insulin or TSH
[4] = transfected with dsDNA, FRTL-5 cells 6 days in 4 H medium
[5] = transfected with dsRNA, FRTL-5 cells 6 days in 4 H medium

Sc1ncc[nH]1 [2-mercaptoimidazole, reference compound]
ability of dsDNA to increase MHC Class I, TAP-1, LMP2, MHC Class II, invariant chain, HLA-DM, and 90K gene expression [1]: no effect
activity as antimmune drug [2]: inactive

1,3-dimethyl-4-phenylimidazoline-2-thione
antiviral properties (herpes simplex): antiviral properties
antiviral properties (vaccinia viruses): antiviral properties

Cn1cc[nH]c1=S [Methimazole, methimazole, reference compound]
ability of dsDNA to increase MHC Class I, TAP-1, LMP2, MHC Class II, invariant chain, HLA-DM, and 90K gene expression [1]: INHIBIT
dsDNA or dsRNA transfection efficiency [1]: does not affect
cell cycle arrest (FRTL-5 rat thyroid cells; 36 hours): arrest in the G2/M1 phase
percentage of cells in S + G2/M phase (FRTL-5 rat thyroid cells; [3]): 6.3%
action of the ds nucleic acids on cell cycle progression (FRTL-5 rat thyroid cells): inhibit
effect of ds nucleic acids on growth (FRTL-5 rat thyroid cells): counteracts
percentage of cells in S + G2/M phase (FRTL-5 rat thyroid cells; [4]): 11.4%
percentage of cells in S + G2/M phase (FRTL-5 rat thyroid cells; [5]): 7.4%

Cn1c(-c2ccccc2)c[nH]c1=S [Compound 10, 5-phenylmethimazole]
ability of dsDNA to increase MHC Class I, TAP-1, LMP2, MHC Class II, invariant chain, HLA-DM, and 90K gene expression [1]: significantly decreases
ability of dsDNA to increase MHC Class I, TAP-1, LMP2, MHC Class II, invariant chain, HLA-DM, and 90K gene expression ([1]; listed as compound 10): better than 5 mM MMI
ability of dsRNA to increase MHC Class I, TAP-1, LMP2, MHC Class II, invariant chain, HLA-DM, and 90K gene expression [1]: decreases
ability of dsRNA to increase MHC Class I, TAP-1, LMP2, MHC Class II, invariant chain, HLA-DM, and 90K gene expression ([1]; listed as compound 10): better than MMI
dsDNA or dsRNA transfection efficiency [1]: does not affect
expression of MHC and antigen-presenting genes, coincident transfection and treatment ([1]; no pretreatment): resulted in suppression
effect on cells transfected with double strand DNA or RNA (HUVEC cells): similarly effective
effect on cells transfected with double strand DNA or RNA (mouse dendritic cells): similarly effective
effect on cells transfected with double strand DNA or RNA (human fibroblasts): similarly effective
cell cycle arrest (FRTL-5 rat thyroid cells; 36 hours): no such effect
effect on ds nucleic acid effects on cell cycle (FRTL-5 rat thyroid cells; 5H then 6H medium, 0.5 mM compound 10, 36 hours): no effect
percentage of cells in S + G2/M phase (FRTL-5 rat thyroid cells; [3]): 10.5%
action of the ds nucleic acids on cell cycle progression (FRTL-5 rat thyroid cells): inhibit
effect of ds nucleic acids on growth (FRTL-5 rat thyroid cells): does not
percentage of cells in S + G2/M phase (FRTL-5 rat thyroid cells; [4]): 11.0%
percentage of cells in S + G2/M phase (FRTL-5 rat thyroid cells; [5]): 4.5%
development of Diabetes (female NOD mice): suppress the development
development of systemic lupus erythematosus (SLE) (female (NZBxNZW)F1 mice): suppress the development
activity as antimmune drug [2]: most active
potency relative to MMI [2]: 10- to 100 fold
